Where two headings read alike, the source gives them in different places.

The values below come from patent US9776995B2, “Bicyclic sulfonamide compounds as sodium channel inhibitors” (AMGEN INC., priority 2013, dated 2017).

The target in series [1] is Nav 1.7 (Homo sapiens (Human), UniProt Q15858). In words: in-vitro Nav 1.7 PX data. It is filed as cell-based.
In series [2] the target is Nav 1.5 (Homo sapiens (Human), UniProt Q14524). In words: in-vitro Nav 1.5 PX data. The settings on record: read-out: Nav 1.5 PX IC50.
Chain of Nav 1.5 (Q14524 whole entry): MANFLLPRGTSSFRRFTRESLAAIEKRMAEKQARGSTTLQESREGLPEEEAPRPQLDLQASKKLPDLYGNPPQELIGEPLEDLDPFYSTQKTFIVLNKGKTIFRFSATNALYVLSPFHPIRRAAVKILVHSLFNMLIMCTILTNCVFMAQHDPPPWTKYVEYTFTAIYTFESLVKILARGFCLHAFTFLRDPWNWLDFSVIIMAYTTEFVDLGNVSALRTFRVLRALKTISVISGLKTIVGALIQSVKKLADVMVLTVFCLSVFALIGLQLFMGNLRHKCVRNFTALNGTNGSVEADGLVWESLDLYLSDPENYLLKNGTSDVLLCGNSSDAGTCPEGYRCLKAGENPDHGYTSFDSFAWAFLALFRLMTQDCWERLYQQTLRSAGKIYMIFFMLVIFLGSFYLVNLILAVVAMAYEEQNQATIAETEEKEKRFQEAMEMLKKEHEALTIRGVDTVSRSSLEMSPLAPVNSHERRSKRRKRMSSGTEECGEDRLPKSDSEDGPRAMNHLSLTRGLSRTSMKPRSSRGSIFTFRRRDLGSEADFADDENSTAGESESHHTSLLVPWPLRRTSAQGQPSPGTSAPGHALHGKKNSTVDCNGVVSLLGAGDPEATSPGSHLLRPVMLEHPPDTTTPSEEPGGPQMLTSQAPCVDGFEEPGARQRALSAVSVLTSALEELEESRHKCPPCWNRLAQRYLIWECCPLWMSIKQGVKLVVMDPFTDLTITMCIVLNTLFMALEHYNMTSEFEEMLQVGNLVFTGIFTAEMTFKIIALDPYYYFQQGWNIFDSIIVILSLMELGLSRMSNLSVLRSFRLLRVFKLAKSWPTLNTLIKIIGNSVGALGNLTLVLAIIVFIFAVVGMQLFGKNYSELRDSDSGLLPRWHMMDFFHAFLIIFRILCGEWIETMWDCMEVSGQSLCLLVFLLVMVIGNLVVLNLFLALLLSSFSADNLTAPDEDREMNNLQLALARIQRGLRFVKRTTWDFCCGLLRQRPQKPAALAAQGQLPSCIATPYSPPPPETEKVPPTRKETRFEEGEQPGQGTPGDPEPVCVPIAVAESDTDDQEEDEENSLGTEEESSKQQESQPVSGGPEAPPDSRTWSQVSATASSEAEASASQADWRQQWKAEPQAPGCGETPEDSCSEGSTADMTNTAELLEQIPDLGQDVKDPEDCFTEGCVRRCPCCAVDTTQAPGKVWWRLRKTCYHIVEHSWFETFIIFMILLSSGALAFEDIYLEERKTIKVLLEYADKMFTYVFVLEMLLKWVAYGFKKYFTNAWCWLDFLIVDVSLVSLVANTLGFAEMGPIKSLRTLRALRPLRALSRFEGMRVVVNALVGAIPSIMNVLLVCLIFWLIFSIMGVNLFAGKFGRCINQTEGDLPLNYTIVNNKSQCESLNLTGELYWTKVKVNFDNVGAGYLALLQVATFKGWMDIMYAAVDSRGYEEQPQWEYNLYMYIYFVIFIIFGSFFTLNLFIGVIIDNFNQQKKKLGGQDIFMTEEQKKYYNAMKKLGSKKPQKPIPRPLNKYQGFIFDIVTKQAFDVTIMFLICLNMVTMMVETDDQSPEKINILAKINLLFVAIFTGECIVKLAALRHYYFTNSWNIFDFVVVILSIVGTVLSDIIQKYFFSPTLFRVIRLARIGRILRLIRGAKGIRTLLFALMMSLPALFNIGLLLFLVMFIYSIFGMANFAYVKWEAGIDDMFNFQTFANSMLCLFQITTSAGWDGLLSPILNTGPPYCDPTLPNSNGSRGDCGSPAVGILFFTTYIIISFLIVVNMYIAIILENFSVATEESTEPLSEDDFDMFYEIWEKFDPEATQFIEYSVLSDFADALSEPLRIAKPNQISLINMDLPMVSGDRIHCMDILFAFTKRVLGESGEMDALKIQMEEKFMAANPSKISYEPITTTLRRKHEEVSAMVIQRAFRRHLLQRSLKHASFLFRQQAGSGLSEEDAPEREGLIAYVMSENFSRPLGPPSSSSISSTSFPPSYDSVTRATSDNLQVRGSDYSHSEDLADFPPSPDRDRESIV

Chain of Nav 1.7 (Q15858 whole entry): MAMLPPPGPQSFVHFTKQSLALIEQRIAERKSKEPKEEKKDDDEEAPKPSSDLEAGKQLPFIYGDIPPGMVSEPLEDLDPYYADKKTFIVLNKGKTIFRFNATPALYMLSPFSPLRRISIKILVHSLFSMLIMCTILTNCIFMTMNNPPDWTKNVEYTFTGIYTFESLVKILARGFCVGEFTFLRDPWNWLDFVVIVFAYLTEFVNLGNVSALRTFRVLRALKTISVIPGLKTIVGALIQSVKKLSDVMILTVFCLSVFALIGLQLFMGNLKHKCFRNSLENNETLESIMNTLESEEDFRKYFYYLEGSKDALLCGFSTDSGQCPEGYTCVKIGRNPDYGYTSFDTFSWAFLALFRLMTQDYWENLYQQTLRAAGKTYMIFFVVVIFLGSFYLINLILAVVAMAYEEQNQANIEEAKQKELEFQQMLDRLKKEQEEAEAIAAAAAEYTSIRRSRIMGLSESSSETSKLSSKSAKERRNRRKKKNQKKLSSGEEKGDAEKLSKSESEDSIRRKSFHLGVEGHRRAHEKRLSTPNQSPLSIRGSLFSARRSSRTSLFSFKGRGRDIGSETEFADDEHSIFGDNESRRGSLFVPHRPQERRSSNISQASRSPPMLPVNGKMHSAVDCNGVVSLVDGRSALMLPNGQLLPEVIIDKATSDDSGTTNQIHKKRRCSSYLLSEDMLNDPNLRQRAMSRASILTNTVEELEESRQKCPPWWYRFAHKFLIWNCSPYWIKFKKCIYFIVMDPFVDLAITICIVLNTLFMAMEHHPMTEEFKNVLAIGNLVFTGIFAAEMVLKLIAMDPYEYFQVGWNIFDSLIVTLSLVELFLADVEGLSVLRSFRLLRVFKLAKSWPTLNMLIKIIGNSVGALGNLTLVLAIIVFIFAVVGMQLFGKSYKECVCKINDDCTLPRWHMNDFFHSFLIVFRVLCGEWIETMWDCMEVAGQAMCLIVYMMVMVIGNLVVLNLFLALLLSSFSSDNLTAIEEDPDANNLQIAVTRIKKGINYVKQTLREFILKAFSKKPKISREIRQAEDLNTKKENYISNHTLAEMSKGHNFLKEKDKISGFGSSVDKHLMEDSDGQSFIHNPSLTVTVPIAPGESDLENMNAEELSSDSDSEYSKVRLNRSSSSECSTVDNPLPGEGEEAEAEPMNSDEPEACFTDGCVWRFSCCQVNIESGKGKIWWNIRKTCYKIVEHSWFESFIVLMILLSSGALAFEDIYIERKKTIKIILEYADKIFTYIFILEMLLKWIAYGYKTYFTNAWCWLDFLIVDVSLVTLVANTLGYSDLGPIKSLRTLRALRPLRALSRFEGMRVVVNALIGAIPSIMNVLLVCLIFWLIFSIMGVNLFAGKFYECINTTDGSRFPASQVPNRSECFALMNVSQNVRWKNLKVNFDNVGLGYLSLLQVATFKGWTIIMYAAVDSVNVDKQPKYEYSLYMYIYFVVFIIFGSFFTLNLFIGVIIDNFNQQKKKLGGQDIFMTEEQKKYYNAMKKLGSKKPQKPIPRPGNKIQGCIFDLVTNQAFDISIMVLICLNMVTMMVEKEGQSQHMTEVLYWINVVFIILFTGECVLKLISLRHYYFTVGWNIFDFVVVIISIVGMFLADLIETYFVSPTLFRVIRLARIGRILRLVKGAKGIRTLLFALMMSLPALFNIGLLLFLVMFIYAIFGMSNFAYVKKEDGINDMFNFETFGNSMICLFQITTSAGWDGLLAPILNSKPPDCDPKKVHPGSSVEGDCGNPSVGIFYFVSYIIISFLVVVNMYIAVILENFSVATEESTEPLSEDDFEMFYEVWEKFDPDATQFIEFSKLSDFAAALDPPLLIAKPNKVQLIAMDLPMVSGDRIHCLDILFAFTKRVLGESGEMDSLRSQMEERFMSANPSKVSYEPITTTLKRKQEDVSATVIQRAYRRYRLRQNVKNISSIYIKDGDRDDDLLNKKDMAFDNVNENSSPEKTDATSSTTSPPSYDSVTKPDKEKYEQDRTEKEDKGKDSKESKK

As for `COc1cc(-c2ccc(F)c(F)c2)c(C#N)cc1-c1nccc2cc(S(=O)(=O)Nc3ccncn3)ccc12` [Example 197, 1-(2-cyano-3′,4′-difluoro-5-methoxy-4-biphenylyl)-N-4-pyrimidinyl-6-isoquinolinesulfonamide], the IC50 is 76 nM in series [1] (in-vitro PX (PatchXpress) data) and above 10000 nM in series [2] (in-vitro PX (PatchXpress) data).
Take `Cc1ccc(OCc2ccccc2)cc1-c1nccc2cc(S(=O)(=O)Nc3ccncn3)ccc12` [Example 151, 1-(5-(benzyloxy)-2-methylphenyl)-N-4-pyrimidinyl-6-isoquinolinesulfonamide]: the IC50 in series [1] (in-vitro Nav 1.7 PX data) is 424 nM; in series [2] (in-vitro Nav 1.5 PX data), above 30000 nM.
Take `COc1cc(Cl)c(-c2cccc(F)c2)cc1-c1nccc2cc(S(=O)(=O)Nc3ccon3)ccc12` [Example 121, 1-(6-chloro-3′-fluoro-4-methoxy-3-biphenylyl)-N-3-isoxazolyl-6-isoquinolinesulfonamide]: the half-maximal inhibitory concentration (IC50) was 91.7 nM in series [1] (in-vitro PX data) and above 10000 nM in series [2] (in-vitro PX data).
In the case of `COc1cc(-c2ccc(F)cc2)c(C#N)cc1-c1nccc2cc(S(=O)(=O)Nc3nncs3)ccc12` [Example 219, 1-(2-cyano-4′-fluoro-5-methoxy-4-biphenylyl)-N-1,3,4-thiadiazol-2-yl-6-isoquinolinesulfonamide], the concentration for half-maximal inhibition (IC50) in series [1] (in-vitro PX) was 33.8 nM; in series [2] (in-vitro PX) it was above 10000 nM.
Take `COc1cc(Oc2ccc(F)cc2)ccc1-c1nccc2cc(S(=O)(=O)Nc3nncs3)ccc12` [Example 174, 1-(4-(4-fluorophenoxy)-2-methoxyphenyl)-N-1,3,4-thiadiazol-2-yl-6-isoquinolinesulfonamide]: the IC50 in series [1] (in-vitro PX (PatchXpress) data) was 141 nM; in series [2] (in-vitro PX (PatchXpress) data), above 10000 nM.
In the case of `COc1cc(-c2ccccc2C)c(C#N)cc1-c1nccc2cc(S(=O)(=O)Nc3ccon3)ccc12` [Example 79, 1-(2-cyano-5-methoxy-2′-methyl-4-biphenylyl)-N-3-isoxazolyl-6-isoquinolinesulfonamide], the concentration for half-maximal inhibition (IC50) in series [1] (PatchXpress (PX), in vitro) was 88 nM; in series [2] (PatchXpress (PX), in vitro), above 10000 nM.
With `COc1cc(-c2ccc(F)c(Cl)c2)c(C#N)cc1-c1nccc2cc(S(=O)(=O)Nc3ccon3)ccc12` [Example 84, 1-(3′-chloro-2-cyano-4′-fluoro-5-methoxy-4-biphenylyl)-N-3-isoxazolyl-6-isoquinolinesulfonamide], the IC50 was 14.7 nM in series [1] (PatchXpress (PX), in vitro) and above 10000 nM in series [2] (PatchXpress (PX), in vitro).
For `COc1cc(-c2ccc(F)c(F)c2)c(C#N)cc1-c1nccc2cc(S(=O)(=O)Nc3ccon3)ccc12` [Example 80, 1-(2-cyano-3′,4′-difluoro-5-methoxy-4-biphenylyl)-N-3-isoxazolyl-6-isoquinolinesulfonamide], in that order: 28.2 nM and above 10000 nM.
In the case of `COc1cc(-c2ccc(Cl)c(F)c2)c(C#N)cc1-c1nccc2cc(S(=O)(=O)Nc3ccncn3)ccc12` [Example 154, 1-(4′-chloro-2-cyano-3′-fluoro-5-methoxy-4-biphenylyl)-N-4-pyrimidinyl-6-isoquinolinesulfonamide], the half-inhibitory concentration (IC50) was 43.5 nM in series [1] (in-vitro Nav 1.7 PX data) and above 30000 nM in series [2] (in-vitro Nav 1.5 PX data).
`COc1cc(-c2ccccc2)ccc1-c1nccc2cc(S(=O)(=O)Nc3nncs3)ccc12` [Example 50]: the concentration for half-maximal inhibition (IC50) was 174 nM in series [1] (PatchXpress (PX), in vitro) and above 10000 nM in series [2] (PatchXpress (PX), in vitro).
For the compound `COc1cc(-c2cccc(F)c2)c(C#N)cc1-c1nccc2cc(S(=O)(=O)Nc3ccncn3)ccc12` [Example 144, 1-(2-cyano-3′-fluoro-5-methoxy-4-biphenylyl)-N-4-pyrimidinyl-6-isoquinolinesulfonamide], the half-inhibitory concentration (IC50) is 106 nM in series [1] (in-vitro Nav 1.7 PX data) and above 10000 nM in series [2] (in-vitro Nav 1.5 PX data).
`COc1cc(-c2cc(F)cc(F)c2)ccc1-c1nccc2cc(S(=O)(=O)Nc3cccnn3)ccc12` [Example 138, 1-(3′,5′-difluoro-3-methoxy-4-biphenylyl)-N-3-pyridazinyl-6-isoquinolinesulfonamide]: the values for the concentration for half-maximal inhibition (IC50) in series [1] (in-vitro PX data) and in series [2] (in-vitro PX data) were 251 nM and above 10000 nM, respectively.
In the same order, the values of `COc1cc(-c2cc(F)cc(F)c2)ccc1-c1nccc2cc(S(=O)(=O)Nc3ncc(F)cn3)ccc12` [Example 135, 1-(3′,5′-difluoro-3-methoxy-4-biphenylyl)-N-(5-fluoro-2-pyrimidinyl)-6-isoquinolinesulfonamide] are 378 nM and above 10000 nM.
For the compound `COc1cc(-c2ccc(C)c(F)c2)c(C#N)cc1-c1nccc2cc(S(=O)(=O)Nc3nncs3)ccc12` [Example 218, 1-(2-cyano-3′-fluoro-5-methoxy-4′-methyl-4-biphenylyl)-N-1,3,4-thiadiazol-2-yl-6-isoquinolinesulfonamide], the IC50 in series [1] (in-vitro PX) is 22.9 nM; in series [2] (in-vitro PX) it was above 10000 nM.
Consider `N#CCOc1cc(-c2cccc(F)c2)ccc1-c1nccc2cc(S(=O)(=O)Nc3ccon3)ccc12` [Example 231, 1-(3-(cyanomethoxy)-3′-fluoro-4-biphenylyl)-N-3-isoxazolyl-6-isoquinolinesulfonamide], for which the values for the IC50 in series [1] (in-vitro PX) and in series [2] (in-vitro PX) were 140 nM and above 30000 nM, respectively.
On to `COc1cc(-c2cccc(C(F)(F)F)c2)c(C#N)cc1-c1ncnc2cc(S(=O)(=O)Nc3nncs3)ccc12` [Example 226, 4-(2-cyano-5-methoxy-3′-(trifluoromethyl)-4-biphenylyl)-N-1,3,4-thiadiazol-2-yl-7-quinazolinesulfonamide], for which the 50% inhibitory concentration (IC50) was 11.6 nM in series [1] (in-vitro PX) and above 10000 nM in series [2] (in-vitro PX).
In the case of `COc1cc(-c2cccc(F)c2)c(Cl)cc1-c1nccc2cc(S(=O)(=O)Nc3ccon3)c(F)cc12` [Example 43, 1-(2-CHLORO-3′-FLUORO-5-METHOXY-[1,1′-BIPHENYL]-4-YL)-7-FLUORO-N-(ISOXAZOL-3-YL)ISOQUINOLINE-6-SULFONAMIDE], the IC50 in series [1] (PatchXpress (PX), in vitro) is 45.6 nM; in series [2] (PatchXpress (PX), in vitro) it was above 10000 nM.
Turning to `COc1cc(-c2cc(F)cnc2OC)ccc1-c1nccc2cc(S(=O)(=O)Nc3nncs3)ccc12` [Example 30, 1-(4-(5-FLUORO-2-METHOXYPYRIDIN-3-YL)-2-METHOXYPHENYL)-N-(1,3,4-THIADIAZOL-2-YL)ISOQUINOLINE-6-SULFONAMIDE], the results for the IC50 in series [1] (in-vitro Nav 1.7 PX data) and in series [2] (in-vitro Nav 1.5 PX data) were 80.1 nM and above 30000 nM, respectively.
In the case of `COc1cc(Oc2cc(C)ccc2F)ccc1-c1nccc2cc(S(=O)(=O)Nc3nncs3)ccc12` [Example 190, 1-(4-(2-fluoro-5-methylphenoxy)-2-methoxyphenyl)-N-1,3,4-thiadiazol-2-yl-6-isoquinolinesulfonamide], the IC50 was 243 nM in series [1] (in-vitro PX (PatchXpress) data) and above 10000 nM in series [2] (in-vitro PX (PatchXpress) data).
In the same order, the values of `COc1cc(-c2ccc(-c3nccc4cc(S(=O)(=O)Nc5nncs5)ccc34)c(OC)c2)c(F)cn1` [Example 189, 1-(4-(5-fluoro-2-methoxy-4-pyridinyl)-2-methoxyphenyl)-N-1,3,4-thiadiazol-2-yl-6-isoquinolinesulfonamide] are 394 nM and above 30000 nM.
Take `COc1cc(-c2cccc(F)c2)c(C#N)cc1-c1ncnc2cc(S(=O)(=O)Nc3ccon3)ccc12` [Example 203, 4-(2-cyano-3′-fluoro-5-methoxy-4-biphenylyl)-N-3-isoxazolyl-7-quinazolinesulfonamide]: the half-inhibitory concentration (IC50) in series [1] (in-vitro PX (PatchXpress) data) was 28.8 nM; in series [2] (in-vitro PX (PatchXpress) data), above 10000 nM.
Regarding “1-(2-cyano-5-methoxy-2′-methyl-4-biphenylyl)-N-1,3,4-thiadiazol-2-yl-6-isoquinolinesulfonamide [Example 220]”, the 50% inhibitory concentration (IC50) was 40.1 nM in series [1] (in-vitro PX) and above 10000 nM in series [2] (in-vitro PX).
In the case of `COc1cc(-c2cccc(C(F)(F)F)c2)c(F)cc1-c1nn(C)c(=O)c2cc(S(=O)(=O)Nc3ccon3)ccc12` [Example 25, 1-(2-FLUORO-5-METHOXY-3′-(TRIFLUOROMETHYL)-[1,1′-BIPHENYL]-4-YL)-N-(ISOXAZOL-3-YL)-3-METHYL-4-OXO-3,4-DIHYDROPHTHALAZINE-6-SULFONAMIDE], the figures for the IC50 in series [1] and in series [2] (in-vitro PX) were 94.1 nM and above 10000 nM, respectively.
For `COc1cc(-c2cc(F)cnc2OC)c(C#N)cc1-c1ncnc2cc(S(=O)(=O)Nc3nncs3)ccc12` [Example 20, 4-(5-CYANO-4-(5-FLUORO-2-METHOXYPYRIDIN-3-YL)-2-METHOXYPHENYL)-N-(1,3,4-THIADIAZOL-2-YL)QUINAZOLINE-7-SULFONAMIDE], the values for the IC50 in series [1] and in series [2] (in-vitro PX (PatchXpress) data) were 182 nM and above 10000 nM, respectively.
For the compound `COc1cc(-c2cc(F)cc(F)c2)c(C#N)cc1-c1nccc2cc(S(=O)(=O)Nc3ncccn3)ccc12` [Example 107, 1-(2-cyano-3′,5′-difluoro-5-methoxy-4-biphenylyl)-N-2-pyrimidinyl-6-isoquinolinesulfonamide], the IC50 was 255 nM in series [1] (in-vitro PX data) and above 10000 nM in series [2] (in-vitro PX data).
Turning to `COc1cc(-c2ccc(C)c(Cl)c2)c(C#N)cc1-c1nccc2cc(S(=O)(=O)Nc3nncs3)ccc12` [Example 229, 1-(3′-chloro-2-cyano-5-methoxy-4′-methyl-4-biphenylyl)-N-1,3,4-thiadiazol-2-yl-6-isoquinolinesulfonamide], the 50% inhibitory concentration (IC50) is 20.5 nM in series [1] (in-vitro PX) and above 10000 nM in series [2] (in-vitro PX).
Take `COc1cc(-c2cc(F)cc(F)c2)ccc1-c1nccc2cc(S(=O)(=O)Nc3ccsn3)ccc12` [Example 5, 1-(3′,5′-DIFLUORO-3-METHOXY-[1,1′-BIPHENYL]-4-YL)-N-(ISOTHIAZOL-3-YL)ISOQUINOLINE-6-SULFONAMIDE 2,2,2-TRIFLUOROACETATE]: the IC50 is 337 nM in series [1] and above 10000 nM in series [2] (in-vitro PX data).
As for `COc1cc(-c2cccc(F)c2)c(Cl)cc1-c1ccnc2cc(S(=O)(=O)Nc3ccon3)ccc12` [Example 239, 4-(2-chloro-3′-fluoro-5-methoxy-4-biphenylyl)-N-3-isoxazolyl-7-quinolinesulfonamide], the values for the half-inhibitory concentration (IC50) in series [1] (in-vitro PX) and in series [2] (in-vitro PX) were 115 nM and 11200 nM, respectively.
Regarding `COc1cc(-c2cc(F)cc(F)c2)c(C#N)cc1-c1ncnc2cc(S(=O)(=O)Nc3ccon3)ccc12` [Example 202, 4-(2-cyano-3′,5′-difluoro-5-methoxy-4-biphenylyl)-N-3-isoxazolyl-7-quinazolinesulfonamide], the IC50 in series [1] (in-vitro PX (PatchXpress) data) is 46 nM; in series [2] (in-vitro PX (PatchXpress) data) it was above 10000 nM.

By IC50 is commonly meant the concentration that inhibits the measured activity by half.
